Patent US9926306B2, “Inhibition of MCL-1 and/or BFL-1/A1” (Dana-Farber Cancer Institute, Inc., priority 2012, dated 2018)
“Also recorded” adds a separate entry of the source.

Experiments:
BFL-1/A1ΔC = BFL-1/A1ΔC (Homo sapiens (Human), UniProt Q16548); assay: Competitive fluorescence polarization binding assay, BFL-1/A1 (FITC-BID BH3); details: Table A
From the text: FIG. 19A and FIG. 19B are graphs that show potent targeting of the anti-apoptotic protein BFL-1/A1 by MIM1. […] Thus, the complex between FITC-BID BH3 and BFL-1/A1ΔC was employed in a competitive FP assay to monitor the capacity of MIM1 to target BFL-1/A1ΔC.

MCL-1ΔNΔC [1] = biological target: T1, MCL-1ΔNΔC (Homo sapiens (Human), UniProt Q07820); assay: Competitive fluorescence polarization binding assay, MCL-1; details: for IC50: Table A
Method: Here, we deployed MCL-1 SAHBA as a high fidelity screening tool to determine if its potency and specificity-of-action could be harnessed for small molecule discovery. […] A compilation of 71,296 small molecules was screened for the capacity to displace FITC-MCL-1 SAHBA from recombinant MCL-1ΔNΔC (aa 172-327) (FIG. 4).
Fluorescence polarization assays (FPA) were performed as previously described^38,39. […] Fluorescence polarization was measured at equilibrium and IC50 values calculated by nonlinear regression analysis of competitive binding curves using Prism software (Graphpad).

[2] = test system: BCL-XL-rescued p185+Arf−/−Mcl-1−/− CML cells; assay: Cell viability (CellTiter-Glo), BCL-XL-dependent leukemia cells; type: cell-based, murine; details: Mus musculus, 24 h
Method: Cell viability was assayed at 24 h by addition of CellTiter-Glo reagent according to the manufacturer's protocol (Promega), and luminescence was measured using a SpectraMax M5 microplate reader (Molecular Devices). […] Viability and caspase assays were performed in duplicate, repeated at least twice with independent cell cultures, and the data normalized to vehicle-treated control wells.

[3] = test system: BCL-XL-rescued p185+Arf−/−Mcl-1−/− CML cells; assay: Caspase 3/7 activation (Caspase-Glo), BCL-XL-dependent leukemia cells; type: cell-based, murine; details: 8 h
Method: p185^+Arf^−/− and MCL-1 or BCL-XL-rescued p185^+Arf^−/−Mcl^−/− cells were maintained in RPMI 1640 (ATCC) supplemented with 10% (v/v) FBS, 100 U/mL penicillin, 100 μg/mL streptomycin, 0.1 mM MEM non-essential amino acids and 50 μM β-mercaptoethanol. […] Caspase 3/7 activation was assayed at 8 h by addition of Caspase-Glo 3/7 reagent according to manufacturer's protocol (Promega), and luminescence measured using a SpectraMax M5 microplate reader. Viability and caspase assays were performed in duplicate, repeated at least twice with independent cell cultures, and the data normalized to vehicle-treated control wells.

[4] = test system: wild-type or Bax−/−Bak−/− MEFs; assay: Cell viability (CellTiter-Glo), MEFs; type: cell-based, mouse; details: non-malignant fibroblasts, 24 h
Method: (§1) p185^+Arf^−/− and MCL-1 or BCL-XL-rescued p185^+Arf^−/−Mcl^−/− cells were maintained in RPMI 1640 (ATCC) supplemented with 10% (v/v) FBS, 100 U/mL penicillin, 100 μg/mL streptomycin, 0.1 mM MEM non-essential amino acids and 50 μM β-mercaptoethanol. Mouse embryonic fibroblasts (MEFs) cells were maintained in DMEM high glucose (Invitrogen) supplemented with 10% (v/v) FBS, 100 U/mL penicillin, 100 μg/mL streptomycin, 2 mM L-glutamine, 50 mM HEPES, 0.1 mM MEM non-essential amino acids and 50 μM β-mercaptoethanol. […] Cell viability was assayed at 24 h by addition of CellTiter-Glo reagent according to the manufacturer's protocol (Promega), and luminescence was measured using a SpectraMax M5 microplate reader (Molecular Devices). Caspase 3/7 activation was assayed at 8 h by addition of Caspase-Glo 3/7 reagent according to manufacturer's protocol (Promega), and luminescence measured using a SpectraMax M5 microplate reader. Viability and caspase assays were performed in duplicate, repeated at least twice with independent cell cultures, and the data normalized to vehicle-treated control wells.

BCL-XLΔC [5] = biological target: T2, BCL-XLΔC (Homo sapiens (Human), UniProt Q07817); assay: BAX-mediated liposomal release assay, suppression by BCL-XL; type: biochemical
Method: (§2) Liposomes were prepared and release assays performed as previously described^46,47. Liposomal composition reflects a mixture of the following molar percentages of lipids (Avanti Polar Lipids): phosphatidylcholine, 48%; phosphatidylethanolamine, 28%; phosphatidylinositol, 10%; dioleoyl phosphatidylserine, 10%; and tetraoleoyl cardiolipin, 4%. Aliquots of mixed lipids (1 mg total) are stored in glass at −20° C. under nitrogen, and before use, resuspended in liposome assay buffer (10 mM HEPES, 200 mM KCl, 1 mM MgCl2, pH 7) containing 12.5 mM of the fluorescent dye ANTS (8-aminonaphthalene-1,3,6-trisulfonic acid, disodium salt) and 45 mM of the quencher DPX (p-xylene-bis-pyridinium bromide. The resulting slurry is vortexed for 10 min and freeze-thawed five times in liquid nitrogen and a 40° C. water bath, respectively. The solution is then passed through an Avanti Mini-Extruder Set (#610000) equipped with a 100 nm filter, followed by passage through a Sepharose column (GE Healthcare) to remove residual ANTS/DPX.

[6] = test system: wild-type or Bax−/−Bak−/− MEFs; assay: Caspase 3/7 activation (Caspase-Glo), MEFs; type: cell-based, mouse; details: 8 h
Method: as §1

MCL-1ΔNΔC [7] = biological target: T1, MCL-1ΔNΔC; assay: BAX-mediated liposomal release assay, suppression by MCL-1; type: biochemical
Method: as §2

[8] = test system: parental p185+Arf−/− CML cells; assay: Cell viability and CalcuSyn synergy, parental leukemia cells; type: cell-based, murine; details: Mus musculus; parental cells expressing both MCL-1 and BCL-XL; read-out: IC50, cytotoxicity
Method: as §1

[9] = test system: MCL-1-rescued p185+Arf−/−Mcl-1−/− CML cells; assay: Cell viability (CellTiter-Glo), MCL-1-dependent leukemia cells; type: cell-based, murine; details: MCL-1-dependent cells
From the text: A challenges in developing and applying molecular antagonists for BCL-2 family anti-apoptotic proteins is the variable expression of multiple homologues. That is, a cancer cell will only be susceptible to a selective anti-apoptotic inhibitor if the cell is especially dependent on that particular survival protein. […] To test MIM1's activity and specificity in cancer cells, we employed murine p185^+Arf^−/−Mcl-1^−/− chronic myelogenous leukemia (CML) cells that are unable to survive unless reconstituted with MCL-1, reflecting a stringent system for assessing MCL-1 dependence.
p185^+Arf^−/− and MCL-1 or BCL-XL-rescued p185^+Arf^−/−Mcl^−/− cells were maintained in RPMI 1640 (ATCC) supplemented with 10% (v/v) FBS, 100 U/mL penicillin, 100 μg/mL streptomycin, 0.1 mM MEM non-essential amino acids and 50 μM β-mercaptoethanol. […] Cell viability was assayed at 24 h by addition of CellTiter-Glo reagent according to the manufacturer's protocol (Promega), and luminescence was measured using a SpectraMax M5 microplate reader (Molecular Devices). Caspase 3/7 activation was assayed at 8 h by addition of Caspase-Glo 3/7 reagent according to manufacturer's protocol (Promega), and luminescence measured using a SpectraMax M5 microplate reader. […]

BCL-XLΔC [10] = biological target: T2, BCL-XLΔC; assay: Competitive fluorescence polarization binding assay, BCL-XL; details: tracer FITC-BID BH3; read-out: IC50, displacement of FITC-BID BH3 from BCL-XLΔC

T1 sequence (Q07820 172-327, stated change not applied): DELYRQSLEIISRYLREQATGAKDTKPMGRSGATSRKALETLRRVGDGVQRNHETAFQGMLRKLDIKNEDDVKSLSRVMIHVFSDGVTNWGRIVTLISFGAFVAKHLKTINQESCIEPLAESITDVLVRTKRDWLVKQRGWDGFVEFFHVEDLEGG
BFL-1/A1ΔC, sequence (Q16548 1-153): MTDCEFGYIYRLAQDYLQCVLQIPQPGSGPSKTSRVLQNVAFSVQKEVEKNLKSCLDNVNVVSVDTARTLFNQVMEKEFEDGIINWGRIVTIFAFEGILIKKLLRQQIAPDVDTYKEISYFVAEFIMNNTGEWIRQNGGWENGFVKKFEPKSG
T2 sequence (Q07817 1-212): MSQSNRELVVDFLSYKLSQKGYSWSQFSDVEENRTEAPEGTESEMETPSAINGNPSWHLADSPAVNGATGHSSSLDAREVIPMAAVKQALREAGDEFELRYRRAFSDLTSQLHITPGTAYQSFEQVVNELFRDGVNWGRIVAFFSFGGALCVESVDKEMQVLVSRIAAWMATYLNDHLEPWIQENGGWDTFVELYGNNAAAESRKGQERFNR

Row | SMILES | IC50 (BFL-1/A1ΔC) | IC50 (MCL-1ΔNΔC [1]) | other results
1 | CCOC(=O)c1s/c(=N\C2CCCCC2)n(/N=C/c2ccc(O)c(O)c2O)c1C [183-91] | 381 nM | 11800 nM | –
2 | Cc1cs/c(=N\CC2CCCCC2)n1/N=C/c1ccc(O)c(O)c1O [187-5] | 1100 nM | 2700 nM | –
3 | Oc1cc(O)c(/C=N/n2c(C3CC3)cs/c2=N\C2CCCCC2)cc1O [187-7] | 26 nM | 123 nM | –
4 | Cc1cs/c(=N\C(C)C(C)C)n1/N=C/c1ccc(O)c(O)c1O (stereo not drawn) [187-20] | 2100 nM | 1780 nM | –
5 | Cc1cs/c(=N\C2CCCc3ccccc32)n1/N=C/c1cc(O)c(O)cc1O (stereo not drawn) [187-22] | 144 nM | 1410 nM | –
6 | Cc1cs/c(=N\C2CCCc3ccccc32)n1/N=C/c1ccc(O)c(O)c1O (stereo not drawn) [187-23] | 1100 nM | 4360 nM | –
7 | CC(C)C(C)/N=c1\scc(C(C)(C)C)n1/N=C/c1ccc(O)c(O)c1O (stereo not drawn) [187-27] | 1500 nM | 4300 nM | –
8 | CC(C)C(C)/N=c1\scc(C2CC2)n1/N=C/c1cc(O)c(O)cc1O (stereo not drawn) [187-39] | 1100 nM | 7300 nM | –
9 | Cc1s/c(=N\C2CCCCC2)n(/N=C/c2cc(O)c(O)cc2O)c1C1CC1 [187-44] | 117 nM | 587 nM | –
10 | Cc1cs/c(=N\C2CC3CCC2C3)n1/N=C/c1cc(O)c(O)cc1O (stereo not drawn) [187-79] | 272 nM | 937 nM | –
11 | Cc1cs/c(=N\c2ccccc2)n1/N=C/c1ccc(O)c(O)c1 [187-82] | 8100 nM | 13300 nM | –
12 | CN(C)CC[C@H](CSc1ccccc1)Nc1ccc(S(=O)(=O)NC(=O)c2ccc(N3CCN(Cc4ccccc4-c4ccc(Cl)cc4)CC3)cc2)cc1[N+](=O)[O-] [ABT-737, N-(4-(4-((4′-chloro(1,1′-biphenyl)-2-yl)methyl)piperazin-1-yl)benzoyl)-4-(((1R)-3-(dimethylamino)-1-((phenylsulfanyl)methyl)propyl)amino)-3-nitrobenzenesulfonamide, reference compound] | – | – | IC50 [2]: 1600 nM; caspase 3/7 activation [3]: dose-responsive caspase 3/7 activation; effect on viability / toxicity [4]: no significant effect; blockade of BCL-XLΔC suppression of tBID-induced BAX activation (BCL-XLΔC [5]): negates; caspase 3/7 activation [6]: no observed caspase 3/7 activation; blockade of MCL-1ΔNΔC suppression of tBID-induced BAX activation (MCL-1ΔNΔC [7]): no effect; MCL-1ΔNΔC binding activity (MCL-1ΔNΔC [1]; competitive FP): no activity; IC50 [8]: 5100 nM; effect on viability / cytotoxicity [9]: no effect
13 | Cc1cs/c(=N\C2CCCCC2)n1/N=C/c1ccc(O)c(O)c1O [MIM1, 4-((E)-(((Z)-2-(cyclohexylimino)-4-methylthiazol-3(2H)-yl)imino)methyl)benzene-1,2,3-triol] | – | – | effect on viability / toxicity [4]: little to no toxicity; also recorded: no significant effect; caspase 3/7 activation [6]: no observed caspase 3/7 activation; IC50 [8]: 10600 nM; IC50 ([9]; Mus musculus, 24 h): 4200 nM; IC50 (BCL-XLΔC [10]): > 50000 nM
